# Assay results taken from patent publication US9550782B2, “Compounds and methods for treating diabetes” (Medivation Technologies, Inc., priority 2011, dated 2017).
# Like-named read-outs stand apart in the source and are kept apart here.
# Tests used:
# [1] = target: T1, human recombinant adrenergic α2B receptor (Homo sapiens, UniProt P18089); experiment: Radioligand binding, adrenergic α2B ([3H]Rauwolscine); conditions: for Percentage inhibition of ligand binding, Adrenergic α2B (0.1 μM): repeat datapoints each shown
# T1 construct: expressed in transfected cells; host or cells: CHO-K1
# T1 sequence (P18089 1-450): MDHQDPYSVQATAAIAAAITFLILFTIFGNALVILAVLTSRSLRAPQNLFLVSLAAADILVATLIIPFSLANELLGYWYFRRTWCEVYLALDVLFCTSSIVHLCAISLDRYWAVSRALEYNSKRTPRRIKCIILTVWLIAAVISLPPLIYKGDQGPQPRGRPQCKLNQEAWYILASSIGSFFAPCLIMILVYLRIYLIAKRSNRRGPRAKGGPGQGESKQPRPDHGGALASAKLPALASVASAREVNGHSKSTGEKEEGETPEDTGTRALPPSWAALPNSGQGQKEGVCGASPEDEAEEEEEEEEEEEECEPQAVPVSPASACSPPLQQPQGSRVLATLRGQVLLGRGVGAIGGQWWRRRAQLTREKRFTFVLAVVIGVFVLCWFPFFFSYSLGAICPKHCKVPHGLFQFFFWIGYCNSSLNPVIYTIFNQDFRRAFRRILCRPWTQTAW
# Summary of the method: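 Receptor expressed in CHO-K1 cells, assayed in 50 mM Tris-HCl pH 7.4 with 12.5 mM MgCl2, 1 mM EDTA and 0.2% BSA. Compounds were incubated with 2.5 nM [3H]Rauwolscine for 60 min at 25° C; 10 μM Prazosin defined non-specific binding. Filter counting gave percent inhibition of specific binding.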
# [2] = target: T2, rat adrenergic α1B receptor (Rattus norvegicus, UniProt P15823); experiment: Radioligand binding, adrenergic α1B ([3H]Prazosin); design: species or system Wistar Rat; conditions: for Percentage inhibition of ligand binding, Adrenergic α1B (0.1 μM): repeat datapoints each shown
# T2 construct: rat adrenergic α1B receptor obtained from Wistar Rat liver; from tissue; host or cells: Wistar rat liver
# T2 sequence (P15823 1-515): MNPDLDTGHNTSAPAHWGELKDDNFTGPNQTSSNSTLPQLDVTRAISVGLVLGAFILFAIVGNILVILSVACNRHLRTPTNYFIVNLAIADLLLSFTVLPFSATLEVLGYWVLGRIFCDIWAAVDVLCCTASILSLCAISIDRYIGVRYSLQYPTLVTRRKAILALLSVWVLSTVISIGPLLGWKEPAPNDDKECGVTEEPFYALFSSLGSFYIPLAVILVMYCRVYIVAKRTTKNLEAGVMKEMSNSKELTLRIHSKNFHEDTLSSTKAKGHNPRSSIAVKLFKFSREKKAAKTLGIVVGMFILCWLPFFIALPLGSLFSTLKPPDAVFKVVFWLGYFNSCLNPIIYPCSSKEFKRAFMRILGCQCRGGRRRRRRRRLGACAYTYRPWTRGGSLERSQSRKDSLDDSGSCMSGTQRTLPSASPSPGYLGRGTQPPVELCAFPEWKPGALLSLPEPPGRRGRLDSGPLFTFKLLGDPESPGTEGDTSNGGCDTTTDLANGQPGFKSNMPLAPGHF
# Summary of the method: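 Rat α1B receptor from Wistar rat liver was incubated with 0.25 nM [3H]prazosin for 60 min at 25 °C in 50 mM Tris-HCl, pH 7.4, 0.5 mM EDTA. Non-specific binding was defined with 10 μM phentolamine. Bound radioligand was measured by filtration and counting, reported as percent inhibition of specific binding.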
# [3] = target: T3, human recombinant adrenergic α1D receptor (Homo sapiens, UniProt P25100); experiment: Radioligand binding, adrenergic α1D ([3H]Prazosin); conditions: for Percentage inhibition of ligand binding, Adrenergic α1D (0.1 μM): repeat datapoints each shown
# T3 construct: expressed in transfected cells; host or cells: HEK-293
# T3 sequence (P25100 1-572): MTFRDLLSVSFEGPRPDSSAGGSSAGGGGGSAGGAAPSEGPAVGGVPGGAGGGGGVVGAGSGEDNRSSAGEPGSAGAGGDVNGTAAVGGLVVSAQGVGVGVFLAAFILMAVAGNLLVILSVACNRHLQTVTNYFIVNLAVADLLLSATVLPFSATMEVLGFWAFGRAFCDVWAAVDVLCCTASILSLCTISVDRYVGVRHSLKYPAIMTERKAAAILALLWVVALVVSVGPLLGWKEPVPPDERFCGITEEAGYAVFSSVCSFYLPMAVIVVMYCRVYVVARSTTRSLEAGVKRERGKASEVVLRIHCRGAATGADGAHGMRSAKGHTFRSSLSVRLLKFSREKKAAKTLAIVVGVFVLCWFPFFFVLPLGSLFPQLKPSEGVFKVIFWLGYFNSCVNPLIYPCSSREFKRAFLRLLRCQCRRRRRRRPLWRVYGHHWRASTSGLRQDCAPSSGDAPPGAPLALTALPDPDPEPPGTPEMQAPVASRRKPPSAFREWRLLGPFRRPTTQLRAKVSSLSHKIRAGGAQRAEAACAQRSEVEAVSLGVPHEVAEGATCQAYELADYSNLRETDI
# Method: Compounds were incubated with 0.6 nM [^3H]Prazosin for 60 min at 25° C. Non-specific binding was estimated in the presence of 10 μM phentolamine. Receptor proteins were filtered and washed, the filters were then counted to determine [^3H]Prazosin specifically bound. […] Biochemical assay results are presented as the percent inhibition of specific binding in Table B1.
# [4] = target: T4, human recombinant adrenergic α2A receptor (Homo sapiens, UniProt P08913); experiment: Radioligand binding, adrenergic α2A ([3H]MK-912); conditions: [3H]MK-912
# T4 construct: expressed in transfected cells; host or cells: insect Sf9 cells
# T4 sequence (P08913 1-465): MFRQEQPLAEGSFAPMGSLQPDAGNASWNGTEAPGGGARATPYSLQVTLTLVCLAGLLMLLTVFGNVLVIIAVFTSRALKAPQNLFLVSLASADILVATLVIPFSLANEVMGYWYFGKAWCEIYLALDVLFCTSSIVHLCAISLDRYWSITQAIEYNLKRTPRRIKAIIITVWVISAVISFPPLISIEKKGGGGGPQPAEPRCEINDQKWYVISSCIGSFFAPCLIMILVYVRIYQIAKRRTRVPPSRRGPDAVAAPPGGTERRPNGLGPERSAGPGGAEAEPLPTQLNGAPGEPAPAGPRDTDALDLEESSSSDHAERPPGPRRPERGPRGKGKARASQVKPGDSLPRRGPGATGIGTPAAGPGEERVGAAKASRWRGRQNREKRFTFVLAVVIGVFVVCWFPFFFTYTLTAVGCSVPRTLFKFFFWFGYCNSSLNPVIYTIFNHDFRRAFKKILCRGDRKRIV
# Summary of the method: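 Sf9 membranes, 1 nM [3H]MK-912, 60 min, 25 °C, Tris-HCl pH 7.4/MgCl2/EDTA buffer. NSB: 10 μM WB-4101. Filtration, counting; % inhibition of specific binding.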
# [5] = compound at 0.1 μM, repeat datapoints each shown
smiles,measurement,setting,value
"CCCCC(O)(Cn1c2c(c3cc(Cl)ccc31)CN(C)CC2)c1ccc(F)cc1 (single isomer, unassigned) [33a]","Percentage inhibition of ligand binding, Adrenergic α2B (0.1 μM)","[1]; compound at 0.1 μM, 0.1 µM",−3%
same,"Percentage inhibition of ligand binding, Adrenergic α1B (0.1 μM)","[2]; compound at 0.1 μM, 0.1 µM",−2%
same,"Percentage inhibition of ligand binding, Adrenergic α1D (0.1 μM)","[3]; compound at 0.1 μM, 0.1 µM",23%
"CCCCC(O)(Cn1c2c(c3cc(Cl)ccc31)CN(C)CC2)c1ccc(F)cc1 (single isomer, unassigned) [33b]","Percentage inhibition of ligand binding, Adrenergic α2B (0.1 μM)","[1]; compound at 0.1 μM, 0.1 µM",2%
same,"Percentage inhibition of ligand binding, Adrenergic α1B (0.1 μM)","[2]; compound at 0.1 μM, 0.1 µM",0%
same,"Percentage inhibition of ligand binding, Adrenergic α2A (0.1 μM)",[4]; [5],−7%
same,"Percentage inhibition of ligand binding, Adrenergic α1D (0.1 μM)","[3]; compound at 0.1 μM, 0.1 µM",14%
"CCC(O)(Cn1c2c(c3cc(C)ccc31)CN(C)CC2)c1ccc(F)cc1 (single isomer, unassigned) [34b]","Percentage inhibition of ligand binding, Adrenergic α2B (0.1 μM)","[1]; compound at 0.1 μM, 0.1 µM",1%
same,"Percentage inhibition of ligand binding, Adrenergic α1B (0.1 μM)","[2]; compound at 0.1 μM, 0.1 µM",−2%
same,"Percentage inhibition of ligand binding, Adrenergic α2A (0.1 μM)","[4]; compound at 0.1 μM, repeat datapoints each shown, 0.1 µM",3%
same,"Percentage inhibition of ligand binding, Adrenergic α1D (0.1 μM)","[3]; compound at 0.1 μM, 0.1 µM",13%
"CC(Cn1c2c(c3ccccc31)CN(C)CC2)c1ccc(F)cc1 (single isomer, unassigned) [272a]","Percentage inhibition of ligand binding, Adrenergic α2B",[1]; compound at 0.1 μM,−10%
same,"Percentage inhibition of ligand binding, Adrenergic α1B","[2]; compound at 0.1 μM, 0.1 µM",27%
same,"Percentage inhibition of ligand binding, Adrenergic α2A","[4]; compound at 0.1 μM, 0.1 µM",33%
same,"Percentage inhibition of ligand binding, Adrenergic α1D","[3]; compound at 0.1 μM, 0.1 µM",12%
"CC(Cn1c2c(c3ccccc31)CN(C)CC2)c1ccc(F)cc1 (single isomer, unassigned) [272b]","Percentage inhibition of ligand binding, Adrenergic α1B","[2]; compound at 0.1 μM, 0.1 µM",30%
same,"Percentage inhibition of ligand binding, Adrenergic α2A","[4]; compound at 0.1 μM, 0.1 µM",68%
same,"Percentage inhibition of ligand binding, Adrenergic α1D","[3]; compound at 0.1 μM, 0.1 µM",36%
"Cc1ccc2c(c1)c1c(n2CC(C)c2ccc(F)cc2)CCN(C)C1 (single isomer, unassigned) [288a]","Percentage inhibition of ligand binding, Adrenergic α2B",[1]; compound at 0.1 μM,104%
same,"Percentage inhibition of ligand binding, Adrenergic α1D","[3]; compound at 0.1 μM, 0.1 µM",88%
"Cc1ccc2c(c1)c1c(n2CC(C)c2ccc(F)cc2)CCN(C)C1 (single isomer, unassigned) [288b]","Percentage inhibition of ligand binding, Adrenergic α1B",[2]; compound at 0.1 μM,39%
same,"Percentage inhibition of ligand binding, Adrenergic α2A",[4]; compound at 0.1 μM,67%
same,"Percentage inhibition of ligand binding, Adrenergic α1D","[3]; compound at 0.1 μM, 0.1 µM",17%
"Cc1ccc2c(c1)c1c(n2CC(C)c2ccc(C)nc2)CCN(C)C1 (single isomer, unassigned) [289a]","Percentage inhibition of ligand binding, Adrenergic α1B","[2]; compound at 0.1 μM, 0.1 µM",51%
same,"Percentage inhibition of ligand binding, Adrenergic α2A","[4]; compound at 0.1 μM, 0.1 µM",60%
same,"Percentage inhibition of ligand binding, Adrenergic α1D","[3]; compound at 0.1 μM, 0.1 µM",57%
"Cc1ccc2c(c1)c1c(n2CC(C)c2ccc(C)nc2)CCN(C)C1 (single isomer, unassigned) [289b]","Percentage inhibition of ligand binding, Adrenergic α2B",[1]; compound at 0.1 μM,54%
same,"Percentage inhibition of ligand binding, Adrenergic α1B","[2]; compound at 0.1 μM, 0.1 µM",12%
same,"Percentage inhibition of ligand binding, Adrenergic α2A","[4]; compound at 0.1 μM, 0.1 µM",53%
same,"Percentage inhibition of ligand binding, Adrenergic α1D","[3]; compound at 0.1 μM, 0.1 µM",−2%
CCC(O)(Cn1c2c(c3cc(C)ccc31)CN(C)CC2)c1ccncc1 (stereo not drawn) [35a],"Percentage inhibition of ligand binding, Adrenergic α2B (0.1 μM)",[1]; compound at 0.1 μM,62%
same,"Percentage inhibition of ligand binding, Adrenergic α1B (0.1 μM)",[2]; compound at 0.1 μM,9%
same,"Percentage inhibition of ligand binding, Adrenergic α2A (0.1 μM)",[4]; [5],20%
same,"Percentage inhibition of ligand binding, Adrenergic α1D (0.1 μM)",[3]; compound at 0.1 μM,6%
CCC(O)(Cn1c2c(c3cc(C)ccc31)CN(C)CC2)c1ccc(F)cc1 (stereo not drawn) [compound 34],inhibition at 0.1 µM,"[1]; read-out: Percentage inhibition of ligand binding, Adrenergic α2B (0.1 μM), compound at 0.1 μM, repeat datapoints each shown",38%
same,inhibition at 0.1 µM,"[2]; read-out: Percentage inhibition of ligand binding, Adrenergic α1B (0.1 μM), compound at 0.1 μM, repeat datapoints each shown",30%
same,inhibition at 0.1 µM,"[4]; read-out: Percentage inhibition of ligand binding, Adrenergic α2A (0.1 μM), compound at 0.1 μM, repeat datapoints each shown",28%
same,inhibition at 0.1 µM,"[3]; read-out: Percentage inhibition of ligand binding, Adrenergic α1D (0.1 μM), compound at 0.1 μM, repeat datapoints each shown",2%
Cc1ccc2c(c1)c1c(n2CCc2sccc2C)CCN(C)C1 [compound 308],inhibition at 0.1 µM,"[1]; compound at 0.1 μM, read-out: Percentage inhibition of ligand binding, Adrenergic α2B",97%
same,inhibition at 0.1 µM,"[2]; compound at 0.1 μM, read-out: Percentage inhibition of ligand binding, Adrenergic α1B",79%
same,inhibition at 0.1 µM,"[4]; compound at 0.1 μM, read-out: Percentage inhibition of ligand binding, Adrenergic α2A",86%
same,inhibition at 0.1 µM,"[3]; compound at 0.1 μM, read-out: Percentage inhibition of ligand binding, Adrenergic α1D",56%
